# Measurements reported in PMC3871601, “Potential Cooperations between Odorant-Binding Proteins of the Scarab Beetle Holotrichia oblita Faldermann (Coleoptera: Scarabaeidae)” (PLoS ONE, 2013).
# Like-named read-outs stand apart in the source and are kept apart here.
# Experiments:
# HoblOBP3 = HoblOBP3 (Holotrichia oblita, UniProt G9BWQ7); assay: biochemical; assay type: binding
# Protocol: (§1) N-phenyl-1-naphthylamine (1-NPN) was selected as a probe to measure the affinity of the 1-NPN fluorescent ligand to proteins. A 1-cm light path quartz cuvette was used, and the fluorescence spectra were recorded on a Lengguang 970 CRT spectrofluorimeter (Shanghai Jingmi, China) at room temperature in a right angle configuration. The parameter selection was such that the slit widths for both excitation and emission were 10 nm. 1-NPN was excited at 337 nm and the emission spectra were recorded between 350 and 550 nm. Spectra were recorded using high-speed scanning.
# (§2) The 2 µM protein solution was dissolved in 50 mM Tris-HCl buffer with pH 7.4, and the ligands were dissolved in chromatographically pure methanol as a 1 mM stock solution. 1-NPN was dissolved in chromatographically pure methanol as a 1 mM stock solution.
# (§3) To determine the dissociation constants, the intensity values corresponding to the maximum fluorescence emission were plotted against free ligand concentrations. Assuming that the protein was 100% active and that the stoichiometric ratio between the protein and ligand was 1:1 at saturation, the bound ligand was determined from the fluorescence intensity values. The curves were then linearized using Scatchard plots. The K1-NPN values were estimated using GraphPad Prism 5 Software by nonlinear regression for a unique binding site. The dissociation constants of the competitors (Ki) were calculated from the corresponding IC50 values using the following equation: Ki = [IC50]/1+[1-NPN]/K1-NPN. […] [1-NPN] represented the free concentration of 1-NPN, and K1-NPN represented the dissociation constant of the complex protein/1-NPN [76].
# HoblOBP4 = HoblOBP4 (Holotrichia oblita, UniProt G9BWQ8); assay: biochemical; assay type: binding
# Protocol: as §1, §2, §3
# [1] = HoblOBP3, dash = IC50 exceeded 50 µM, read-out: IC50 (dash)
# [2] = HoblOBP3, dash = ligand whose IC50 exceeded 50 µM, Ki not given, read-out: Ki (dash)
# [3] = pH 7.4, HoblOBP3, at the ligand concentration 24 µM, protein and 1-NPN both 2 µM, read-out: Int (fluorescence intensity as percent of the initial fluorescence)
# [4] = HoblOBP4, dash = IC50 exceeded 50 µM, read-out: IC50 (dash)
# [5] = HoblOBP4, dash = ligand whose IC50 exceeded 50 µM, Ki not given, read-out: Ki (dash)
# [6] = pH 7.4, HoblOBP4, at the ligand concentration 24 µM, protein and 1-NPN both 2 µM, read-out: Int (fluorescence intensity as percent of the initial fluorescence)
# [7] = HoblOBP4, calculated from IC50 and K1-NPN, read-out: Ki
# [8] = HoblOBP4, protein and 1-NPN both 2 µM, ligand titrated 2–50 µM, read-out: IC50 (concentration of ligand halving the initial fluorescence intensity)
# [9] = pH 7.4, read-out: Int (fluorescence intensity as percent of the initial fluorescence)
# [10] = HoblOBP3, at the ligand concentration 24 µM, protein and 1-NPN both 2 µM
# [11] = HoblOBP4, at the ligand concentration 24 µM, protein and 1-NPN both 2 µM
# HoblOBP4, sequence (G9BWQ8 entry or part of it): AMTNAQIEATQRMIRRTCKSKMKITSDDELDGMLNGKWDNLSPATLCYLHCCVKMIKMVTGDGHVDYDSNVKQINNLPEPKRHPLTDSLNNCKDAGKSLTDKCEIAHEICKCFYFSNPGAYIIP
# HoblOBP3, sequence (G9BWQ7 entry or part of it): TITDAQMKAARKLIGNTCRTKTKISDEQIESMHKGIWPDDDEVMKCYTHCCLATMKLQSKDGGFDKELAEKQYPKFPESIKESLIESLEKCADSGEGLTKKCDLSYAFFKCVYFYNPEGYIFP
SMILES,IC50 (HoblOBP3; [1]) [µM],Ki (HoblOBP3; [2]) [µM],activity at 24 µM (HoblOBP3; [3]) [%],activity at 24 µM (HoblOBP4; [6]) [%],Ki (HoblOBP4; [7]) [µM],IC50 (HoblOBP4; [8]) [µM],further results
CCCCCC=O [1-Hexanal],,,68,42,,,IC50 (HoblOBP3): > 50 µM; Ki (HoblOBP3): > 50 µM; IC50 (HoblOBP4): 15 µM; Ki (HoblOBP4): 11 µM
CCCCCCCCCO [1-Nonanol],> 50,> 50,71,46,11.8,16,
O=C1C=CCCC1 [2-Cyclohexen-1-one],> 50,> 50,70,49,16.9,23,
CC(C)(C)C1CCC(O)CC1 (centres unmarked) [4-tert-Butyl cyclohexanol],> 50,> 50,68,49,14,19,
CC(=O)CCC=C(C)C [6-Methyl-5-hepten-2-one],,,,,,,IC50 (HoblOBP3): > 50 µM; Ki (HoblOBP3): > 50 µM; activity at 24 µM (HoblOBP3; [9]): 78%; IC50 (HoblOBP4): 32 µM; Ki (HoblOBP4): 23.5 µM; activity at 24 µM (HoblOBP4; [9]): 52%
O=Cc1ccccc1 [Benzaldehyde],,,,,,,IC50 (HoblOBP3): > 50 µM; Ki (HoblOBP3): > 50 µM; activity at 24 µM (HoblOBP3; [9]): 68%; IC50 (HoblOBP4): 17 µM; Ki (HoblOBP4): 12.5 µM; activity at 24 µM (HoblOBP4; [9]): 44%
O=CCc1ccccc1 [Benzeneacetaldehyde],> 50,> 50,,,,,IC50 (HoblOBP4; [4]): > 50 µM; Ki (HoblOBP4; [5]): > 50 µM
CCCCCCCCCC [Decane],> 50,> 50,,,,,IC50 (HoblOBP4; [4]): > 50 µM; Ki (HoblOBP4; [5]): > 50 µM
CC(C)=CCC/C(C)=C/CO [Geraniol],,,,,,,IC50 (HoblOBP3): > 50 µM; Ki (HoblOBP3): > 50 µM; activity at 24 µM (HoblOBP3; [9]): 79%; IC50 (HoblOBP4): 16 µM; Ki (HoblOBP4): 11.8 µM; activity at 24 µM (HoblOBP4; [9]): 44%
CCCCCCC [Heptane],,,63,43,,,IC50 (HoblOBP3): > 50 µM; Ki (HoblOBP3): > 50 µM; IC50 (HoblOBP4): 16 µM; Ki (HoblOBP4): 11.8 µM
C=C(C)C1CC=C(C)CC1 (centres unmarked) [Limonene],,,56,52,,,IC50 (HoblOBP3): > 50 µM; Ki (HoblOBP3): > 50 µM; IC50 (HoblOBP4): > 50 µM; Ki (HoblOBP4): > 50 µM
CC(C)[C@@H]1CC[C@@H](C)C[C@H]1OC(=O)c1ccccc1O [Menthyl salicylate],> 50,> 50,,,,,Int (fluorescence intensity as percent of the initial fluorescence) (HoblOBP3; [10]): 75%; Int (fluorescence intensity as percent of the initial fluorescence) (HoblOBP4; [11]): 54%; IC50 (HoblOBP4; [4]): > 50 µM; Ki (HoblOBP4; [5]): > 50 µM
CCCCCCCCC [Nonane],> 50,> 50,,,,,IC50 (HoblOBP4; [4]): > 50 µM; Ki (HoblOBP4; [5]): > 50 µM
CCCCCCCC [Octane],> 50,> 50,,,18.4,25,activity at 24 µM (HoblOBP3; [9]): 70%; activity at 24 µM (HoblOBP4; [9]): 51%
OCCc1ccccc1 [Phenethyl alcohol],> 50,> 50,66,52,20.6,28,
CC1=CCC(O)(C(C)C)CC1 (centres unmarked) [Terpinen-4-ol],,,,,,,IC50 (HoblOBP3): > 50 µM; Ki (HoblOBP3): > 50 µM; activity at 24 µM (HoblOBP3; [9]): 75%; IC50 (HoblOBP4): 21 µM; Ki (HoblOBP4): 15.4 µM; activity at 24 µM (HoblOBP4; [9]): 48%
CCC/C=C\CO [cis-2-Hexen-1-ol],,,70,42,,,IC50 (HoblOBP3): > 50 µM; Ki (HoblOBP3): > 50 µM; IC50 (HoblOBP4): 14 µM; Ki (HoblOBP4): 10.3 µM

# Now from value to compound, other results behind:
IC50 (HoblOBP3; [1]) [µM],Ki (HoblOBP3; [2]) [µM],activity at 24 µM (HoblOBP3; [3]) [%],activity at 24 µM (HoblOBP4; [6]) [%],Ki (HoblOBP4; [7]) [µM],IC50 (HoblOBP4; [8]) [µM],SMILES,further results
> 50,> 50,86,68,,,CCCCCCCCCC=O [1-Decanal],IC50 (HoblOBP4; [4]): > 50 µM; Ki (HoblOBP4; [5]): > 50 µM
> 50,> 50,70,46,15.4,21,CCCCCCCO [1-Heptanol],
> 50,> 50,91,45,8.8,12,CCCCCCO [1-Hexanol],
> 50,> 50,86,54,29.4,40,C=CC(O)CCCCC (centres unmarked) [1-Octen-3-ol],
,,65,44,11.8,16,CCCCC=O [1-Pentanal],"Ki (HoblOBP3; HoblOBP3, calculated from IC50 and K1-NPN, read-out: Ki): 26.8 µM; IC50 (HoblOBP3; HoblOBP3, protein and 1-NPN both 2 µM, ligand titrated 2–50 µM, read-out: IC50 (concentration of ligand halving the initial fluorescence intensity)): 41 µM"
> 50,> 50,78,56,29.4,40,CC/C=C\CCOC(C)=O [(Z)-3-Hexenyl acetate],
> 50,> 50,69,40,8.1,11,CCCCOC(=O)c1ccccc1 [Butyl Benzoate],
> 50,> 50,76,50,,24,CCOC(=O)CN [Glycine ethyl ester],
> 50,> 50,53,36,2.9,4,CCCCCCOC(=O)c1ccccc1 [Hexyl benzoate],
> 50,> 50,68,49,17.7,24,CC[C@H](C)[C@H](N)C(=O)OC [L-Isoleucine methyl ester],
> 50,> 50,,,14.7,20,CCOC(=O)[C@@H]1CCCN1 [L-Proline ethyl ester],Int (fluorescence intensity as percent of the initial fluorescence) (HoblOBP3; [10]): 70%; Int (fluorescence intensity as percent of the initial fluorescence) (HoblOBP4; [11]): 47%
> 50,> 50,74,56,,,C=CC(=C)CCC=C(C)C [Myrcene],IC50 (HoblOBP4; [4]): > 50 µM; Ki (HoblOBP4; [5]): > 50 µM
> 50,> 50,81,48,14.7,20,CCCOC(=O)c1ccccc1 [Propyl benzoate],
